Data: patent publication US7432253B2, “Phosphoepoxides, method for making same and uses” (Institut National de la Sante et de la Recherche Medicale, priority 1998, dated 2008)

How the values were obtained:
Tγ9δ2 lymphocytes = assay: Bioactivity (induced cytotoxicity test) after transient chemical treatment; format: cell-based; parameters: key: + indicates detection of activity upon Tγ9δ2 lymphocytes; − indicates that no activity could be detected; details: diluted 1:30 from 5 to 10 μM solutions
Experimental: The bioactivity of the compound according to the invention Epox-PP (obtained as stated in Example 1) is compared with that of a stock preparation of Tubag natural phosphoantigens obtained as described in WO 95/20673.
Bioactivity is measured by an induced cytotoxicity test as described in Example 6 using the compound to be tested diluted 1:30 from 5 to 10 μM solutions of the compounds.
Before bioactivity is measured, the compounds are subjected to a transient chemical treatment by being brought into contact with one of the following reagents: NaIO4 (5 mM); NaBH3CN (10 mM, pH 7); KMnO4 (1 mM); bromine water Br2, H2O (7 mM), followed by neutralization of the reagent.

Tγ9δ2 lymphocyte clone = assay: Induced cytotoxicity test of a Tγ9δ2 lymphocyte clone; format: cell-based; details: for concentration at which the compound is active: stimulation of specific cytotoxic activity
mice = assay: Toxicity of Epox-PP (sodium salt) in mice, intravenous injection; format: in vivo
Experimental: Five 30 g mice received an intravenous injection (caudal vein) of 300 μl of PBS buffer containing 1 mg of Epox-PP (sodium salt). […] Toxicity is thus less than 20% for a dose of 33.4 mg of Epox-PP (sodium salt) per kilogram of animal body weight.

human Tγ9δ2 lymphocytes [1] = system: human Tγ9δ2 lymphocytes
human Tγ9δ2 lymphocytes [2] = details: prior art prenyl pyrophosphates, best results obtained; cited from earlier work

Substance: 3,4-epoxy-3-methyl-1-butyl diphosphate [Epox-PP]
- Bioactivity after chemical treatment: KMnO4 (1 mM) (Tγ9δ2 lymphocytes; KMnO4 1 mM): +
- Bioactivity after chemical treatment: NaBH3CN (10 mM pH7) (Tγ9δ2 lymphocytes; NaBH3CN 10 mM pH 7): +
- Bioactivity after chemical treatment: NaIO4 (5 mM) (Tγ9δ2 lymphocytes; NaIO4 5 mM): +
- Bioactivity after chemical treatment: Br2, H2O (7 mM) (Tγ9δ2 lymphocytes; bromine water 7 mM): +
- Bioactivity after chemical treatment: none (Tγ9δ2 lymphocytes; no reagent): +
- concentration at which the compound is active (Tγ9δ2 lymphocyte clone): ~20 nM

Substance: 3,4-epoxy-3-methyl-1-butyl diphosphate [Epox-PP (sodium salt)]
- sign of shock or pyrogenicity (mice; 1 mg i.v. (caudal vein) per 30 g mouse): No sign of shock or pyrogenicity
- variation in the weight of the mice (mice; 1 mg i.v. per 30 g mouse, during the study): no significant variation
- Toxicity (mice; dose of 33.4 mg per kilogram of animal body weight, i.v.): less than 20%
- mice still alive after 30 days (mice; five mice, 1 mg i.v. per 30 g mouse, 30 days): 5 mice

Substance: isopentenylpyrophosphate [IPP]
- minimum active concentration relative to natural phosphoantigens (human Tγ9δ2 lymphocytes [1]): ~1000 times higher
- active concentration relative to the compound from Example 1 (Tγ9δ2 lymphocyte clone; IPP versus Epox-PP): 150 times higher
- concentration at which the compound is active (Tγ9δ2 lymphocyte clone): ~3000 nM
- minimum concentration at which activity could be demonstrated (human Tγ9δ2 lymphocytes [2]): ≥ 3 µM
